Assay results reported in PubChem BioAssay AID1963866 (Molecular Pharmacology Branch, DTP, NCI, 2024).

Tested on: PDC KRAS tumor spheroids with HUVEC/MSC, viability
Assay: Anticancer human tumor 349418-098-R-PDC patient-derived lung adenocarcinoma cell line growth inhibition [KRAS2]
Conditions: for IC50: curve of first compound; for viability, T/C: stronger effect = lower value; active = viability on the fitted dose curve at most 10% of control; inactive = the rest
In short: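 Combination screen of spheroid viability in tumor-cell co-cultures with endothelial (HUVEC) and mesenchymal stem cell stroma. Each agent was tested in half-log dilutions, topping at clinical Cmax or at 10 microM without a known Cmax.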

[1] = second compound 0.1 µM, first compound 0.0316 µM
[2] = second compound 0.1 µM, first compound 0.1 µM
[3] = second compound 0.1 µM, first compound 0.316 µM
[4] = second compound 0.1 µM, first compound 1 µM
[5] = second compound 0.1 µM, first compound 3.16 µM
[6] = second compound 0.1 µM, first compound 10 µM
[7] = second compound 0.316 µM, first compound 0.0316 µM
[8] = second compound 0.316 µM, first compound 0.1 µM
[9] = second compound 0.316 µM, first compound 0.316 µM
[10] = second compound 0.316 µM, first compound 1 µM
[11] = second compound 0.316 µM, first compound 3.16 µM
[12] = second compound 0.316 µM, first compound 10 µM
[13] = second compound 1 µM, first compound 0.0316 µM
[14] = second compound 1 µM, first compound 0.1 µM
[15] = second compound 1 µM, first compound 0.316 µM
[16] = second compound 1 µM, first compound 1 µM
[17] = second compound 1 µM, first compound 3.16 µM
[18] = second compound 1 µM, first compound 10 µM
[19] = second compound 3.16 µM, first compound 0.0316 µM
[20] = second compound 3.16 µM, first compound 0.1 µM
[21] = second compound 3.16 µM, first compound 0.316 µM
[22] = second compound 3.16 µM, first compound 1 µM
[23] = second compound 3.16 µM, first compound 3.16 µM
[24] = second compound 3.16 µM, first compound 10 µM
[25] = second compound 10 µM, first compound 0.0316 µM
[26] = second compound 10 µM, first compound 0.1 µM
[27] = second compound 10 µM, first compound 0.316 µM
[28] = second compound 10 µM, first compound 1 µM
[29] = second compound 10 µM, first compound 3.16 µM
[30] = second compound 10 µM, first compound 10 µM
[31] = second compound 0.1 µM, first compound 0.000316 µM
[32] = second compound 0.1 µM, first compound 0.001 µM
[33] = second compound 0.1 µM, first compound 0.00316 µM
[34] = second compound 0.1 µM, first compound 0.01 µM
[35] = second compound 0.316 µM, first compound 0.000316 µM
[36] = second compound 0.316 µM, first compound 0.001 µM
[37] = second compound 0.316 µM, first compound 0.00316 µM
[38] = second compound 0.316 µM, first compound 0.01 µM
[39] = second compound 1 µM, first compound 0.000316 µM
[40] = second compound 1 µM, first compound 0.001 µM
[41] = second compound 1 µM, first compound 0.00316 µM
[42] = second compound 1 µM, first compound 0.01 µM
[43] = second compound 3.16 µM, first compound 0.000316 µM
[44] = second compound 3.16 µM, first compound 0.001 µM
[45] = second compound 3.16 µM, first compound 0.00316 µM
[46] = second compound 3.16 µM, first compound 0.01 µM
[47] = second compound 10 µM, first compound 0.000316 µM
[48] = second compound 10 µM, first compound 0.001 µM
[49] = second compound 10 µM, first compound 0.00316 µM
[50] = second compound 10 µM, first compound 0.01 µM
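Note: spheroids exposed to compounds for seven days before readout.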

CC(C)NCC(C(=O)N1CCN(c2ncnc3c2C(C)CC3O)CC1)c1ccc(Cl)cc1 (stereo not given) + CC1OCC2(CCN(c3cnc(Sc4ccnc(N)c4Cl)c(N)n3)CC2)C1N
358 nM: IC50 (second compound 3.16 µM)
active: viability, T/C [6] 7.23% | viability, T/C [12] 6.51% | viability, T/C [18] 7.82% | viability, T/C [30] 7.92%
472 nM: IC50 (second compound 1 µM)
270 nM: IC50 (second compound 0.1 µM)
271 nM: IC50 (second compound 0.316 µM)
inactive: viability, T/C [1] 98.9% | viability, T/C [2] 78.6% | viability, T/C [3] 42.5% | viability, T/C [4] 25.8% | viability, T/C [5] 13.9% | viability, T/C [7] 100% | viability, T/C [8] 77.7% | viability, T/C [9] 43% | viability, T/C [10] 25.9% | viability, T/C [11] 14.5% | viability, T/C [13] 98.2% | viability, T/C [14] 85.1% | viability, T/C [15] 61.7% | viability, T/C [16] 28.7% | viability, T/C [17] 17.4% | viability, T/C [19] 92.8% | viability, T/C [20] 80.4% | viability, T/C [21] 51.8% | viability, T/C [22] 26.4% | viability, T/C [23] 19.8% | viability, T/C [24] 7.52% | viability, T/C [25] 87.1% | viability, T/C [26] 83.6% | viability, T/C [27] 51.5% | viability, T/C [28] 31% | viability, T/C [29] 15.3%
401 nM: IC50 (second compound 10 µM)

CC(C)n1nc(-c2ccc3oc(N)nc3c2)c2c(N)ncnc21 + CC1OCC2(CCN(c3cnc(Sc4ccnc(N)c4Cl)c(N)n3)CC2)C1N
0.866 nM: IC50 (second compound 0.316 µM)
1.04 nM: IC50 (second compound 0.1 µM)
inactive: viability, T/C [31] 88.6% | viability, T/C [32] 51.3% | viability, T/C [33] 12.7% | viability, T/C [35] 84.3% | viability, T/C [36] 45.1% | viability, T/C [37] 13.2% | viability, T/C [39] 87% | viability, T/C [40] 47.4% | viability, T/C [41] 15.5% | viability, T/C [43] 66.7% | viability, T/C [44] 48.9% | viability, T/C [45] 13.8% | viability, T/C [47] 64.2% | viability, T/C [48] 49.4% | viability, T/C [49] 15%
0.926 nM: IC50 (second compound 1 µM)
0.95 nM: IC50 (second compound 10 µM)
0.929 nM: IC50 (second compound 3.16 µM)
active: viability, T/C [34] 7.28% | viability, T/C [1] 6.47% | viability, T/C [2] 6.12% | viability, T/C [38] 6.85% | viability, T/C [7] 5.49% | viability, T/C [8] 5.49% | viability, T/C [42] 7.37% | viability, T/C [13] 5.67% | viability, T/C [14] 5.72% | viability, T/C [46] 7.85% | viability, T/C [19] 6.12% | viability, T/C [20] 5.21% | viability, T/C [50] 7.11% | viability, T/C [25] 5.4% | viability, T/C [26] 4.86%

CC1(C)CCC(CN2CCN(c3ccc(C(=O)NS(=O)(=O)c4ccc(NCC5CCOCC5)c([N+](=O)[O-])c4)c(Oc4cnc5[nH]ccc5c4)c3)CC2)=C(c2ccc(Cl)cc2)C1 + CC1OCC2(CCN(c3cnc(Sc4ccnc(N)c4Cl)c(N)n3)CC2)C1N
1730 nM: IC50 (second compound 0.316 µM)
1800 nM: IC50 (second compound 0.1 µM)
1780 nM: IC50 (second compound 1 µM)
active: viability, T/C [6] 3.59% | viability, T/C [12] 3.15% | viability, T/C [18] 3.05% | viability, T/C [24] 2% | viability, T/C [30] 0.69%
1580 nM: IC50 (second compound 3.16 µM)
1250 nM: IC50 (second compound 10 µM)
inactive: viability, T/C [1] 105% | viability, T/C [2] 97.1% | viability, T/C [3] 91.4% | viability, T/C [4] 89.1% | viability, T/C [5] 12.3% | viability, T/C [7] 95.4% | viability, T/C [8] 94.4% | viability, T/C [9] 89.6% | viability, T/C [10] 84.5% | viability, T/C [11] 12.2% | viability, T/C [13] 94.9% | viability, T/C [14] 97.9% | viability, T/C [15] 88.2% | viability, T/C [16] 87.1% | viability, T/C [17] 13.3% | viability, T/C [19] 87.4% | viability, T/C [20] 85.5% | viability, T/C [21] 77.9% | viability, T/C [22] 71.8% | viability, T/C [23] 17.7% | viability, T/C [25] 76% | viability, T/C [26] 82.1% | viability, T/C [27] 63.2% | viability, T/C [28] 60.8% | viability, T/C [29] 15.6%

CCN1CCN(Cc2ccc(Nc3ncc(F)c(-c4cc(F)c5nc(C)n(C(C)C)c5c4)n3)nc2)CC1 + CC1OCC2(CCN(c3cnc(Sc4ccnc(N)c4Cl)c(N)n3)CC2)C1N
active: viability, T/C [10] 6.35% | viability, T/C [15] 10.7% | viability, T/C [16] 3.95% | viability, T/C [21] 10.1% | viability, T/C [22] 3.58% | viability, T/C [27] 9.7% | viability, T/C [28] 3.29%
6.16 nM: IC50 (second compound 10 µM)
3.38 nM: IC50 (second compound 0.316 µM)
inactive: viability, T/C [33] 66.4% | viability, T/C [34] 28.3% | viability, T/C [1] 21.4% | viability, T/C [2] 14.6% | viability, T/C [3] 13.6% | viability, T/C [4] 4.93% | viability, T/C [37] 50.9% | viability, T/C [38] 37.3% | viability, T/C [7] 18.1% | viability, T/C [8] 23.4% | viability, T/C [9] 10.2% | viability, T/C [41] 70.2% | viability, T/C [42] 43.6% | viability, T/C [13] 21.1% | viability, T/C [14] 16.4% | viability, T/C [45] 61.6% | viability, T/C [46] 49.8% | viability, T/C [19] 23.7% | viability, T/C [20] 18.1% | viability, T/C [49] 68.6% | viability, T/C [50] 36.7% | viability, T/C [25] 18.2% | viability, T/C [26] 15.1%
7.27 nM: IC50 (second compound 1 µM)
5.38 nM: IC50 (second compound 0.1 µM)
7.9 nM: IC50 (second compound 3.16 µM)

COc1cc2nccc(Oc3ccc(NC(=O)C4(C(=O)Nc5ccc(F)cc5)CC4)cc3)c2cc1OC + CC1OCC2(CCN(c3cnc(Sc4ccnc(N)c4Cl)c(N)n3)CC2)C1N
1700 nM: IC50 (second compound 0.1 µM)
1530 nM: IC50 (second compound 1 µM)
inactive: viability, T/C [1] 113% | viability, T/C [2] 104% | viability, T/C [3] 99.9% | viability, T/C [4] 78.6% | viability, T/C [5] 12.3% | viability, T/C [6] 21.2% | viability, T/C [7] 108% | viability, T/C [8] 98.4% | viability, T/C [9] 96.1% | viability, T/C [10] 79.1% | viability, T/C [11] 10.4% | viability, T/C [12] 17.9% | viability, T/C [13] 104% | viability, T/C [14] 114% | viability, T/C [15] 99.5% | viability, T/C [16] 68.7% | viability, T/C [17] 14.3% | viability, T/C [18] 22.5% | viability, T/C [19] 94.4% | viability, T/C [20] 99.7% | viability, T/C [21] 85.6% | viability, T/C [22] 66.1% | viability, T/C [23] 13.7% | viability, T/C [24] 15.5% | viability, T/C [25] 86.4% | viability, T/C [26] 80.9% | viability, T/C [27] 72.6% | viability, T/C [28] 61.5% | viability, T/C [29] 16.8% | viability, T/C [30] 17.3%
1670 nM: IC50 (second compound 0.316 µM)
1350 nM: IC50 (second compound 10 µM)
1430 nM: IC50 (second compound 3.16 µM)

Cn1ncnc1[C@H]1c2n[nH]c(=O)c3cc(F)cc(c23)N[C@@H]1c1ccc(F)cc1 + CC1OCC2(CCN(c3cnc(Sc4ccnc(N)c4Cl)c(N)n3)CC2)C1N
> 100 nM: IC50 (second compound 0.1 µM) | IC50 (second compound 0.316 µM) | IC50 (second compound 1 µM) | IC50 (second compound 3.16 µM) | IC50 (second compound 10 µM)
inactive: viability, T/C [31] 105% | viability, T/C [32] 102% | viability, T/C [33] 95.9% | viability, T/C [34] 95.7% | viability, T/C [1] 88.6% | viability, T/C [2] 85.8% | viability, T/C [35] 93.5% | viability, T/C [36] 97.2% | viability, T/C [37] 95.6% | viability, T/C [38] 87.5% | viability, T/C [7] 83.3% | viability, T/C [8] 73.9% | viability, T/C [39] 95.8% | viability, T/C [40] 93% | viability, T/C [41] 92.2% | viability, T/C [42] 83.8% | viability, T/C [13] 82.6% | viability, T/C [14] 76% | viability, T/C [43] 90.3% | viability, T/C [44] 83.1% | viability, T/C [45] 83.3% | viability, T/C [46] 79.8% | viability, T/C [19] 73.7% | viability, T/C [20] 74.2% | viability, T/C [47] 78.9% | viability, T/C [48] 74.4% | viability, T/C [49] 76.7% | viability, T/C [50] 66.7% | viability, T/C [25] 62.8% | viability, T/C [26] 61.9%
